According to US4613355A, “Antibiotic having herbicidal activity” (Satoshi Omura, priority 1983, dated 1986):
Where a name gives a salt, the structure may show the parent alone.

Key:
Type in all cases: in vivo
Killifishes (Medaka) = test: Acute toxicity to fish, survival ratio (Example 13); conditions: killifish
Method: Killifishes (Japanese name, Medaka), were obtained from a market and maintained in a water bath at 25±2° C. for a week. Then the fishes (each group consisting of 10 fishes) were placed in water baths containing the test compounds at given concentrations as shown in the following Table. 24 and 48 hours after this, the survival ratio (%) of each group was visually counted to assess the acute toxity.

Eichhornia crassipes = test: Activity against aquatic plants (Example 12); conditions: 0.1%, 1500 liter per hectare, 4 weeks after the treatment
Method: An aqueous solution containing 0.1% of Phosalacine (monosodium salt) and 0.1% of octylphenylpolyoxyethanol was applied to Eichhornia crassipes at a certain stage of growth, at a rate of 1500 liter per hectare as a foliage treatment. Damage to the plants was assessed visually 4 weeks after the treatment.

Rumex obtusifolius = test: Foliage treatment with different salts (Example 11); parameters: key: 0 indicates no effect; 5 indicates complete kill; conditions: Rumex obtusifolius (Plant No. 14), 1000 liter per hectare
Method: Aqueous solutions containing different salts of Phosalacine at different concentrations as active ingredients and 0.1% of octylphenylpolyoxy ethanol as surfactant were applied at a rate of 1000 liter per hectare to Rumex obtusifolius (Plant No. 14) at a certain stage of growth. 21 days after foliage treatment, damage to the plant was visually assessed on a scale of 0 to 5 as hereinbefore described. The salts used were prepared by the methods described in the reference mentioned above.

Digitaria adscendens = test: Foliage treatment of seedlings in pots (Example 7); conditions: 10 days after foliage treatment, 1000 liter per hectare
Method: Upland soil was put in a pot of 10 cm diameter and the seeds of Digitaria adscendens were sown in the soil at a depth of 1 cm from the surface. When the height of the seedlings was about 10 cm, aqueous solutions of the test compounds as shown in the following Table were uniformly sprayed on the plants at a rate of 1.2 ml per plant, equivalent to 1000 liter per hectare. 10 days after the foliage treatment, damage to plants was visually assessed on a scale of from 0 to 10, where 0 indicates no effect and 10 indicates complete kill.

SMILES: CC(C)C[C@H](NC(=O)[C@H](C)NC(=O)[C@@H](N)CCP(C)(=O)O)C(=O)O [Phosalacine (Na salt)]
- Survival ratio (%) (Killifishes (Medaka); 20 ppm, 24 hours): 100%
- Survival ratio (%) (Killifishes (Medaka); 20 ppm, 48 hours): 100%
- Survival ratio (%) (Killifishes (Medaka); 100 ppm, 24 hours): 100%
- Survival ratio (%) (Killifishes (Medaka); 100 ppm, 48 hours): 50%
- Survival ratio (%) (Killifishes (Medaka); 500 ppm, 24 hours): 0%
- Survival ratio (%) (Killifishes (Medaka); 500 ppm, 48 hours): 0%
- Damage to the plants, assessed visually (Eichhornia crassipes): completely killed
- Damage to plants after 21 days, scale 0 to 5 (Rumex obtusifolius; 0.05%): 3
- Damage to plants after 21 days, scale 0 to 5 (Rumex obtusifolius; 0.1%): 5
- damage to plants, scale 0 to 10 (Digitaria adscendens; Concentration 0.01 ppm): 3 (30)
- damage to plants, scale 0 to 10 (Digitaria adscendens; Concentration 0.03 ppm): 10 (100)
- damage to plants, scale 0 to 10 (Digitaria adscendens; Concentration 0.1 ppm): 10 (100)
